Test results as given in patent US4208327A, “5-Aryl-1-(2-oxazolin-2-yl)-1H-1,4-benzodiazepines and related compounds” (G. D. Searle & Co., priority 1979, dated 1980).

How the values were obtained:
[1] = Blockade of pentylenetetrazole induced clonic convulsions, intragastric; assay type: in vivo, mice; details: for ED50: Mus musculus, po
Procedure: Exp. Ther., 108, 168 (1953)]. […] Both test compounds were administered intragastrically at specific time periods prior to the pentylenetetrazole challenge, and the ED50 for blockade of clonic convulsions was determined for each time period. Duration of activity is inferred from increases in the ED50 with time.

[2] = Blockade of pentylenetetrazole induced clonic convulsions, intravenous; assay type: in vivo, mice; details: for ED50: Mus musculus, read-out: ED50 (95% confidence limits), anti-pentylenetetrazole effect
[3] = Multiple VI-FR conflict procedure (anti-conflict, anti-anxiety); assay type: in vivo, squirrel monkey; details: intragastric
[4] = Comparison of durations of anti-conflict activity, drug crossover design, 16 hours after treatment; assay type: in vivo, squirrel monkey; details: molar equivalent dose, 16 hours later; for bar pressing rate during the conflict segments, % of pre-compound control levels: 14 squirrel monkeys, crossover
[5] = Potentiation of a sub-hypnotic dose of pentobarbital sodium (loss of righting reflex); assay type: in vivo, mice; details: for ED50 (95% confidence limits), potentiation of pentobarbital sodium (loss of righting reflex): pentobarbital sodium 20 mg/kg i.p.
Source text: In this procedure an ED50 for loss of righting reflex was established.

[6] = Rotarod test (muscle relaxant); assay type: in vivo, mice; details: intragastric; for ED50: Mus musculus, po, read-out: Rotarod ED50 (95% confidence limits)
Procedure: Using this procedure [after Dunham, N.W. and T.S. Miya, J. Amer. Pharm. […] The compounds were administered intragastrically to mice at varying time periods before being placed on the horizontal rotating (4.4 rpm) rod. Different groups of mice were assigned to each time period so that a subject was tested only once. A testing trial consisted of two opportunities to stay on the rod for one minute. ED50 's were calculated for each time period.

[7] = 5 min, read-out: ED50 (95% confidence limits), anti-pentylenetetrazole effect, 5 min
[8] = 0.5 h, read-out: ED50 (95% confidence limits), anti-pentylenetetrazole effect, 30 min
[9] = read-out: ED50 (95% confidence limits), anti-pentylenetetrazole effect, 15 min
[10] = read-out: ED50 (95% confidence limits), anti-pentylenetetrazole effect, 1 hour
[11] = read-out: ED50 (95% confidence limits), anti-pentylenetetrazole effect, 2 hours
[12] = read-out: ED50 (95% confidence limits), anti-pentylenetetrazole effect, 4 hours
[13] = read-out: ED50 (95% confidence limits), anti-pentylenetetrazole effect, 8 hours
[14] = intragastric, .25 hours, 15 min

Clc1ccc2c(c1)C(c1ccccc1Cl)=NCCN2C1=NCCO1 [Compound I, 7-chloro-5-(o-chlorophenyl)-2,3-dihydro-1-(2-oxazolin-2-yl)-1H-1,4-benzodiazepine]
time to peak anti-pentylenetetrazole activity [1]: ≤ 15 min | change of ED50 in 30 minutes ([1]; 30 minutes): nearly doubled | increase of ED50 by 8 hours [1]: about 20 fold | ED50 [1, 7]: 3.8 mg/kg | ED50 [1, 8]: 1.9 mg/kg | ED50 [1, 9]: 1 mg/kg | ED50 [1, 10]: 1.8 mg/kg | ED50 [1, 11]: 6.2 mg/kg | ED50 [1, 12]: 7.1 mg/kg | ED50 [1, 13]: 19.6 mg/kg | duration of activity ([1]; compared with diazepam): much shorter duration of activity than Diazepam | ED50 ([2]; 1 min, intravenous, 1 min): 0.12 mg/kg | ED50 ([2]; 0.5 h, intravenous, 30 min): 0.23 mg/kg | ED50 ([2]; intravenous, 15 min): 0.18 mg/kg | ED50 ([2]; intravenous, 1 hour): 0.57 mg/kg | ED50 ([2]; intravenous, 2 hours): 1.44 mg/kg | ED50 ([2]; intravenous, 4 hours): 4.79 mg/kg | ED50 ([2]; intravenous, 8 hours): 17.8 mg/kg | time to peak activity ([2]; intravenous): one | anti-convulsant effectiveness ([2]; intravenous as well as intragastric route): effective as an anti-convulsant | increase of ED50 over the 8 hour period ([2]; intravenous, 8 hours): ~150 fold | duration of activity ([2]; intravenous, compared with diazepam): shorter duration of activity | Conflict (FR) bar pressing rate, percentage of average pre-compound control rate ([3]; 1.26 mg/kg, N 5): 1519% | Non-Conflict (VI) bar pressing rate, percentage of average pre-compound control rate ([3]; 1.26 mg/kg, N 5): 46% | Conflict (FR) bar pressing rate, percentage of average pre-compound control rate ([3]; .07 mg/kg, N 5): 281% | Non-Conflict (VI) bar pressing rate, percentage of average pre-compound control rate ([3]; .07 mg/kg, N 5): 100% | dose response of bar pressing rates during the conflict segment ([3]; .07 to 1.26 mg/kg): clear dose responsive increase in bar pressing rates during the conflict segment | Conflict (FR) bar pressing rate, percentage of average pre-compound control rate ([3]; .126 mg/kg, N 6): 514% | Non-Conflict (VI) bar pressing rate, percentage of average pre-compound control rate ([3]; .126 mg/kg, N 6): 101% | Conflict (FR) bar pressing rate, percentage of average pre-compound control rate ([3]; .404 mg/kg, N 6): 1286% | Non-Conflict (VI) bar pressing rate, percentage of average pre-compound control rate ([3]; .404 mg/kg, N 6): 100% | duration of anti-anxiety (anti-conflict) action, in words [4]: shorter duration of action of anti-anxiety effect | bar pressing rate during the conflict segments, % of pre-compound control levels [4]: 123% | duration of sedative-hypnotic activity ([5]; compared with a standard benzodiazepine (diazepam)): shorter duration of sedative-hypnotic activity | ED50 (95% confidence limits), potentiation of pentobarbital sodium (loss of righting reflex) ([5]; intragastric, 1.0 hours): 24.1(17.9-32.4) mg/kg | ED50 (95% confidence limits), potentiation of pentobarbital sodium (loss of righting reflex) ([5]; intragastric, 2.0 hours): 39.1(28.1-54.3) mg/kg | ED50 (95% confidence limits), potentiation of pentobarbital sodium (loss of righting reflex) [5, 14]: 5.6(3.8-8.4) mg/kg | increase of ED50 for potentiating pentobarbital sodium ([5]; intragastric, two hour period): about 7 fold | ED50 ([6]; 0.08 h, .08 hours): 8.5 mg/kg | ED50 ([6]; 0.5 h, .5 hours): 8.9 mg/kg | ED50 ([6]; 1.0 hours): 24 mg/kg | ED50 ([6]; 2.0 hours): 74.9 mg/kg | ED50 ([6]; .25 hours): 2.9 mg/kg | increase of rotarod ED50 from 15 minutes to 2 hours [6]: 25 fold | time to peak effect (rotarod) [6]: ≤ 15 min | duration of action (rotarod) ([6]; compared with diazepam): shorter duration of action | loss of potency over the two hour period (rotarod) ([6]; two hours): rapidly lost potency

CN1C(=O)CN=C(c2ccccc2)c2cc(Cl)ccc21 [Diazepam, diazepam, reference compound]
time to peak anti-pentylenetetrazole activity [1]: ≤ 15 min | increase of ED50 by 8 hours [1]: 2 fold | ED50 [1, 7]: 1.1 mg/kg | ED50 [1, 8]: 0.8 mg/kg | ED50 [1, 9]: 0.9 mg/kg | ED50 [1, 10]: 0.8 mg/kg | ED50 [1, 11]: 0.7 mg/kg | ED50 [1, 12]: 1.6 mg/kg | ED50 [1, 13]: 1.4 mg/kg | ED50 ([2]; 1 min, intravenous, 1 min): 0.07 mg/kg | ED50 ([2]; 0.5 h, intravenous, 30 min): 0.23 mg/kg | ED50 ([2]; intravenous, 15 min): 0.26 mg/kg | ED50 ([2]; intravenous, 1 hour): 0.48 mg/kg | ED50 ([2]; intravenous, 2 hours): 0.75 mg/kg | ED50 ([2]; intravenous, 4 hours): 1.16 mg/kg | ED50 ([2]; intravenous, 8 hours): 1.78 mg/kg | increase of ED50 over the 8 hour period ([2]; intravenous, 8 hours): 25 fold | duration of anti-anxiety (anti-conflict) action, in words [4]: still produced pronounced anti-conflict effects | bar pressing rate during the conflict segments, % of pre-compound control levels [4]: 1265% | ED50 (95% confidence limits), potentiation of pentobarbital sodium (loss of righting reflex) ([5]; intragastric, 1.0 hours): 3.8(2.7-5.4) mg/kg | ED50 (95% confidence limits), potentiation of pentobarbital sodium (loss of righting reflex) ([5]; intragastric, 2.0 hours): 3.6(2.4-5.4) mg/kg | ED50 (95% confidence limits), potentiation of pentobarbital sodium (loss of righting reflex) [5, 14]: 4.1(2.7-6.3) mg/kg
